Laboratory results taken from publication PMC6364417, “Kinase inhibitor library screening identifies synergistic drug combinations effective in sensitive and resistant melanoma cells” (Journal of Experimental & Clinical Cancer Research : CR, 2019).

Assays:
Assay in all cases: Kinase inhibitor library screening, PrestoBlue cell viability, 1 or 10 μM, 72 h
IGR37 cells (parental) = conditions: for cell viability (kinase inhibitor library screening): IGR37 Parental
[1] = system: IGR37-GP cells (Dabrafenib-resistant); conditions: for cell viability (kinase inhibitor library screening): IGR37 GP
A375 cells (parental) = conditions: for cell viability (kinase inhibitor library screening): A375 Parental
[2] = system: 501Mel-GP cells (Dabrafenib-resistant); conditions: for cell viability (kinase inhibitor library screening): 501Mel GP
501Mel cells (parental) = conditions: for cell viability (kinase inhibitor library screening): 501Mel Parental
Outline: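 Single-point screen at two doses over three days. Parental and BRAF-inhibitor-resistant sublines (XP: Vemurafenib; GP: Dabrafenib) were assessed by PrestoBlue viability, reported relative to untreated cells.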

[3] = system: IGR37-XP cells (Vemurafenib-resistant); conditions: for cell viability (kinase inhibitor library screening): IGR37 XP
[4] = system: 501Mel-XP cells (Vemurafenib-resistant); conditions: for cell viability (kinase inhibitor library screening): 501Mel XP
[5] = system: A375-GP cells (Dabrafenib-resistant); conditions: for cell viability (kinase inhibitor library screening): A375 GP
[6] = system: A375-XP cells (Vemurafenib-resistant); conditions: for cell viability (kinase inhibitor library screening): A375 XP

With `O=C1Nc2ccccc2/C1=C1/Nc2ccccc2C1=O` [Indirubin] the viability at 1 µM (IGR37 cells (parental); Homo sapiens, IGR-37, 72 h, read-out: cell viability, IGR37 Parental, 1μΜ) was 100%, the viability at 10 µM (IGR37 cells (parental); Homo sapiens, IGR-37, 72 h, read-out: cell viability, IGR37 Parental, 10μΜ) was 105% and the viability at 1 µM ([1]; Homo sapiens, IGR-37, 72 h, read-out: cell viability, IGR37 GP, 1μΜ) was 94.7%. For the same molecule, the viability at 10 µM ([1]; Homo sapiens, IGR-37, 72 h, read-out: cell viability, IGR37 GP, 10μΜ) was 91.3%, the viability at 1 µM (A375 cells (parental); Homo sapiens, A-375, 72 h, read-out: cell viability, A375 Parental, 1μΜ) was 101% and the viability at 10 µM (A375 cells (parental); Homo sapiens, A-375, 72 h, read-out: cell viability, A375 Parental, 10μΜ) was 95.1%. The viability at 1 µM ([2]; Homo sapiens, 72 h, read-out: cell viability, 501Mel GP, 1μΜ) was 102%, the viability at 10 µM ([2]; Homo sapiens, 72 h, read-out: cell viability, 501Mel GP, 10μΜ) was 91.5% and the viability at 1 µM (501Mel cells (parental); Homo sapiens, 72 h, read-out: cell viability, 501Mel Parental, 1μΜ) was 104%. It also gave a viability at 10 µM (501Mel cells (parental); Homo sapiens, 72 h, read-out: cell viability, 501Mel Parental, 10μΜ) of 101%, a viability at 1 µM ([3]; Homo sapiens, IGR-37, 72 h, read-out: cell viability, IGR37 XP, 1μΜ) of 95.7% and a viability at 10 µM ([3]; Homo sapiens, IGR-37, 72 h, read-out: cell viability, IGR37 XP, 10μΜ) of 75.6%. The viability at 1 µM ([4]; Homo sapiens, 72 h, read-out: cell viability, 501Mel XP, 1μΜ) was 88.9%, the viability at 10 µM ([4]; Homo sapiens, 72 h, read-out: cell viability, 501Mel XP, 10μΜ) was 70.4% and the viability at 1 µM ([5]; Homo sapiens, A-375, 72 h, read-out: cell viability, A375 GP, 1μΜ) was 95.3%. It also gave a viability at 10 µM ([5]; Homo sapiens, A-375, 72 h, read-out: cell viability, A375 GP, 10μΜ) of 96.4%, a viability at 1 µM ([6]; Homo sapiens, A-375, 72 h, read-out: cell viability, A375 XP, 1μΜ) of 102% and a viability at 10 µM ([6]; Homo sapiens, A-375, 72 h, read-out: cell viability, A375 XP, 10μΜ) of 103%.

In the case of `Nc1nc(Nc2ccc(S(N)(=O)=O)cc2)nn1C(=O)c1c(F)cccc1F` [JNJ-7706621], the “cell viability (kinase inhibitor library screening)” value (IGR37 cells (parental); 1μΜ, 72 h) was 95.5%, the “cell viability (kinase inhibitor library screening)” value (IGR37 cells (parental); 10μΜ, 72 h) was 9.4% and the “cell viability (kinase inhibitor library screening)” value ([1]; 1μΜ, 72 h) was 99.1%. The “cell viability (kinase inhibitor library screening)” value ([1]; 10μΜ, 72 h) was 18.2%, the “cell viability (kinase inhibitor library screening)” value (A375 cells (parental); 10μΜ, 72 h) was 5.3% and the “cell viability (kinase inhibitor library screening)” value (A375 cells (parental); 1μΜ, 72 h) was 89.1%. For the same molecule, the “cell viability (kinase inhibitor library screening)” value ([2]; 1μΜ, 72 h) was 110.0%, the “cell viability (kinase inhibitor library screening)” value ([2]; 10μΜ, 72 h) was 0.28% and the “cell viability (kinase inhibitor library screening)” value (501Mel cells (parental); 10μΜ, 72 h) was 0.466%. The “cell viability (kinase inhibitor library screening)” value ([3]; 1μΜ, 72 h) was 106.1%, the “cell viability (kinase inhibitor library screening)” value ([3]; 10μΜ, 72 h) was 2.5% and the “cell viability (kinase inhibitor library screening)” value ([4]; 1μΜ, 72 h) was 97.8%. The “cell viability (kinase inhibitor library screening)” value ([4]; 10μΜ, 72 h) was -0.273%, the “cell viability (kinase inhibitor library screening)” value ([5]; 1μΜ, 72 h) was 89.4% and the “cell viability (kinase inhibitor library screening)” value ([5]; 10μΜ, 72 h) was 3.0%. The “cell viability (kinase inhibitor library screening)” value ([6]; 1μΜ, 72 h) was 93.1% and the “cell viability (kinase inhibitor library screening)” value ([6]; 10μΜ, 72 h) was 5.9%.

`Cn1cc(-c2ccc3nnc(C(F)(F)c4ccc5ncccc5c4)n3n2)cn1` [JNJ-38877605] was tested, and the “cell viability (kinase inhibitor library screening)” value (IGR37 cells (parental); 1μΜ, 72 h) was 106.0%, the “cell viability (kinase inhibitor library screening)” value (IGR37 cells (parental); 10μΜ, 72 h) was 87.1% and the “cell viability (kinase inhibitor library screening)” value ([1]; 1μΜ, 72 h) was 102.6%. The “cell viability (kinase inhibitor library screening)” value ([1]; 10μΜ, 72 h) was 87.5%, the “cell viability (kinase inhibitor library screening)” value (A375 cells (parental); 10μΜ, 72 h) was 97.6% and the “cell viability (kinase inhibitor library screening)” value (A375 cells (parental); 1μΜ, 72 h) was 99.7%. For the same molecule, the “cell viability (kinase inhibitor library screening)” value ([2]; 1μΜ, 72 h) was 86.8%, the “cell viability (kinase inhibitor library screening)” value ([2]; 10μΜ, 72 h) was 64.7% and the “cell viability (kinase inhibitor library screening)” value (501Mel cells (parental); 1μΜ, 72 h) was 97.8%. For the same molecule, the “cell viability (kinase inhibitor library screening)” value (501Mel cells (parental); 10μΜ, 72 h) was 86.4%, the “cell viability (kinase inhibitor library screening)” value ([3]; 1μΜ, 72 h) was 96.1% and the “cell viability (kinase inhibitor library screening)” value ([3]; 10μΜ, 72 h) was 62.2%. The “cell viability (kinase inhibitor library screening)” value ([4]; 1μΜ, 72 h) was 70.9%, the “cell viability (kinase inhibitor library screening)” value ([4]; 10μΜ, 72 h) was 57.1% and the “cell viability (kinase inhibitor library screening)” value ([5]; 10μΜ, 72 h) was 97.0%. For the same molecule, the “cell viability (kinase inhibitor library screening)” value ([6]; 1μΜ, 72 h) was 105.2% and the “cell viability (kinase inhibitor library screening)” value ([6]; 10μΜ, 72 h) was 100.0%.

In the case of `CCCNC(=O)Nc1ccc(Oc2ncnc3cc(OC)c(OC)cc23)cc1Cl` [KRN 633], the “cell viability (kinase inhibitor library screening)” value (IGR37 cells (parental); 1μΜ, in %) was 99.7, the “cell viability (kinase inhibitor library screening)” value (IGR37 cells (parental); 10μΜ, in %) was 109.9 and the “cell viability (kinase inhibitor library screening)” value ([1]; 1μΜ, in %) was 92.2. The “cell viability (kinase inhibitor library screening)” value ([1]; 10μΜ, in %) was 93.4, the “cell viability (kinase inhibitor library screening)” value (A375 cells (parental); 1μΜ, in %) was 103.4 and the “cell viability (kinase inhibitor library screening)” value (A375 cells (parental); 10μΜ, in %) was 92.6. For the same molecule, the “cell viability (kinase inhibitor library screening)” value ([2]; 1μΜ, in %) was 106.2, the “cell viability (kinase inhibitor library screening)” value ([2]; 10μΜ, in %) was 89.7 and the “cell viability (kinase inhibitor library screening)” value (501Mel cells (parental); 1μΜ, in %) was 94.4. For the same molecule, the “cell viability (kinase inhibitor library screening)” value (501Mel cells (parental); 10μΜ, in %) was 91.7, the “cell viability (kinase inhibitor library screening)” value ([3]; 1μΜ, in %) was 98.3 and the “cell viability (kinase inhibitor library screening)” value ([3]; 10μΜ, in %) was 68.5. The “cell viability (kinase inhibitor library screening)” value ([4]; 10μΜ, in %) was 80.1, the “cell viability (kinase inhibitor library screening)” value ([5]; 1μΜ, in %) was 99.0 and the “cell viability (kinase inhibitor library screening)” value ([5]; 10μΜ, in %) was 89.8. For the same molecule, the “cell viability (kinase inhibitor library screening)” value ([6]; 10μΜ, in %) was 103.6.
